Assay results taken from patent US10976310B2, “Ligand identification by co-fractionation” (MAX-PLANCK-GESELLSCHAFT ZUR FÖRDERUNG DER WISSENSCHAFTEN …, priority 2016, dated 2021).
Like-named read-outs stand apart in the source and are kept apart here. Peptide text beside a SMILES is read from it.

How the values were obtained:
TIA1 = target: T1, TIA1 (Homo sapiens, UniProt P31483); experiment: MST measurement of ligand binding to recombinant TIA1
T1 construct: purchased Origene (Herford, Germany)
T1 sequence (P31483 1-386): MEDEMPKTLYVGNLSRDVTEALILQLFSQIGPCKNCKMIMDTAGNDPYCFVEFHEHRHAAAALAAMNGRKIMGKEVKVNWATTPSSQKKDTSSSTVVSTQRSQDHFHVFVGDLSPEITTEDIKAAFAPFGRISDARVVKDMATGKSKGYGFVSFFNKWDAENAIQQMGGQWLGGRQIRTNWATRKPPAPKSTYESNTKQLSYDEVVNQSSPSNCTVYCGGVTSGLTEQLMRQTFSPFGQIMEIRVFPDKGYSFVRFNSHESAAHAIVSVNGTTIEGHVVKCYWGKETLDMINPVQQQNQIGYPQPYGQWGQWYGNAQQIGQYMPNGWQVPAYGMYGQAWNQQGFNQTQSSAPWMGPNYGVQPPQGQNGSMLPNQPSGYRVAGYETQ
Procedure: Expecting such a basic role of 2′,3′-cAMP to be conserved, we performed similar analysis with TIA1, the human functional homolog of Rbp47b. TIA1 was labeled and its interaction with 2′,3′-cAMP was determined using MST.
TIA1 protein was purchased from Origene (Herford, Germany). Rbp47b was cloned as a C-terminal GFP fusion (to increase protein solubility) into the E. coli expression vector pDEST14 containing His6-tag at the N-terminal of the Gateway (Karlsruhe, Germany) cassette. Rosetta cells expressing His6-Rbp47b-GFP were grown at 28° C. overnight and next day were moved to Terrific Broth medium supplied with 1% sucrose and relevant antibiotics. Cultures at OD 0.4 were induced by addition of 0.1 mM IPTG and transferred to 16° C. for overnight incubation.
MST measurements were performed using a Monolith NT.115 instrument (NanoTemper, München, Germany). Capillaries were loaded into the instrument as sets of 13-16 point ligand titrations. Proteins (Rb47b and TIA1) were labeled in phosphate buffer (PBS) using Monolith™ protein labeling kit RED-NHS (amine reactive; MO-L001) according to the manufacturers instruction. Excitation was optimized by varying the LED power to yield emission intensities above 200 AU, corresponding to 10-50 nM labeled protein. Monolith power was set to 60%. Ligands [2′,3′-cAMP (Sigma A9376)] and [3′,5′-cAMP (Sigma A6885)] were dissolved in PBS. […]

Rbp47b = target: T2, Rbp47b (Arabidopsis thaliana, UniProt Q0WW84); experiment: MST measurement of ligand binding to recombinant Rbp47b
T2 sequence (Q0WW84 1-435): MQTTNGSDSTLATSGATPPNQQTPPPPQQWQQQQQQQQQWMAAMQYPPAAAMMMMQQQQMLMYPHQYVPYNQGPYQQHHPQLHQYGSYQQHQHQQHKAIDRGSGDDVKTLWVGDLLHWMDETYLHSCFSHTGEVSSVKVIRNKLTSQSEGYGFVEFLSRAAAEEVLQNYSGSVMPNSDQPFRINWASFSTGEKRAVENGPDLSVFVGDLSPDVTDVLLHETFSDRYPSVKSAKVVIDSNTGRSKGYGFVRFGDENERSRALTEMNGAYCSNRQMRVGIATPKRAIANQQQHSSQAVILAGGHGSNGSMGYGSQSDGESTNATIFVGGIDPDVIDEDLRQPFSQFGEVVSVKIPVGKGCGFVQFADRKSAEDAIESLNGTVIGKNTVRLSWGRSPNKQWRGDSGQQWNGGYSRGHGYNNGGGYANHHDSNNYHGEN
Text: We therefore attempted to determine the in vitro binding affinity biophysically using micro-scale thermophoresis (MST) (Jerabek-Willemsen et al. (2011) Molecular interaction studies using microscale thermophoresis. Assay Drug Dev Technol 9: 342-353). MST exploits the effect of size, charge, and hydration shell on the movement of molecules in a temperature gradient. Complex formation resulting in alteration of at least one of the three parameters leads to differential movement, from which the binding affinity can be determined. For the purpose of the MST experiment, Rbp47b was expressed in and purified from E. coli. […] The measured Kd value also corresponds to the ˜20 μM concentration of 2′,3′-cAMP measured in the native Arabidopsis lysate (FIG. 11B).
TIA1 protein was purchased from Origene (Herford, Germany). Rbp47b was cloned as a C-terminal GFP fusion (to increase protein solubility) into the E. coli expression vector pDEST14 containing His6-tag at the N-terminal of the Gateway (Karlsruhe, Germany) cassette. […]
Next day, cells were disrupted with an Avestin (Mannheim, Germany) EmulsiFlex C3 homogenizer and the protein was purified using imidazole-gradient purification in Ni-NTA agarose (Qiagen 34080, Hilden, Germany). […] Protein purity was assessed by SDS-PAGE and protein identification was done using western blot using anti-His6 antibodies. […]

Rbp47b-TAP protein = target: T3, Rbp47b-TAP protein (Arabidopsis thaliana, UniProt Q0WW84); experiment: Cellular thermal shift assay (CETSA) in native Arabidopsis lysate; type: binding; settings: analogous experiment, native protein lysate
T3 construct: expressed in transfected cells; host or cells: Arabidopsis cell suspension culture, Agrobacterium-transformed
T3 sequence (Q0WW84 1-435): T2 sequence (Q0WW84 1-435)
Procedure: To this end we set out to identify the binding protein partners of 2′,3′-cAMP by applying affinity purification (AP) using agarose beads, with 2′,3′-cAMP linked via the NH2 group of the purine ring. After incubation of the beads with total soluble-protein extracts from A. thaliana cell suspension cultures (cf. Materials and Methods) sequential washings with ADP, GDP, 5′-AMP, and finally 2′,3′-cAMP were performed, and the proteins eluting in the different washings were analyzed by LC-MS/MS proteomics. Proteins eluting from the agarose beads exclusively with 2′,3′-cAMP but absent in any of the other eluents (ADP, GDP, or 5′-AMP; FIG. 10A) were defined as 2′,3′-cAMP-binding. Applying this stringent criterion only one protein remained: the polyadenylate-binding protein Rbp47b. We reasoned that the putative formation of Rbp47b-2′,3′-cAMP complexes in vivo should be reflected by largely overlapping elution profiles of the two components in a size-exclusion experiment (SEC), as was indeed the case (FIG. 10B). To obtain further and independent evidence for the formation of a complex between Rbp47b and 2′,3′-cAMP, we performed a cellular thermal shift assay (CETSA) (Franken et al. (2015) Thermal proteome profiling for unbiased identification of direct and indirect drug targets using multiplexed quantitative mass spectrometry. Nat Protoc 10: 1567-1593). CESTA is a method used in the drug research to verify ligand-receptor binding in the native cellular lysate, based on the observation that presence of the ligand changes thermal stability of the protein receptor. Herein, we adapted the protocol to be suitable for the plant material and an endogenous […] metabolite. We used Arabidopsis cells expressing a tagged version of the Rbp47b, so that Rbp47b level could be easily detected with the anti-tag antibody. […] Taken together, three independent experimental approaches (AP, SEC, and CETSA) provide evidence for the binding of 2′,3′-cAMP to Rbp47b in the native Arabidopsis lysate. […]

[1] = target: T4, gibberellin receptor GID1 (Oryza sativa subsp. japonica, UniProt Q6L545); settings: Ueguchi-Tanaka et al. (2005); read-out: Kd of binding to GID1; cited from earlier work
T4 sequence (Q6L545 1-354): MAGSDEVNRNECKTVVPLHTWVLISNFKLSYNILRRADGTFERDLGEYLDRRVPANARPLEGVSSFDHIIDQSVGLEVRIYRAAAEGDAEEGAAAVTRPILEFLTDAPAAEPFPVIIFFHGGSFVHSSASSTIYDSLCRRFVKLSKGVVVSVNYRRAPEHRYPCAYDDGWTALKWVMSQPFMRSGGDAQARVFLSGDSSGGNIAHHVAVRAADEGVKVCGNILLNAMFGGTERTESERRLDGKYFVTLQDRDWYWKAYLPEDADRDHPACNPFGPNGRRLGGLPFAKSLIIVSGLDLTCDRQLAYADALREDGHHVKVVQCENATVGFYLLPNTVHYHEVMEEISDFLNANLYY

FBA6 = target: T5, FBA6 (Arabidopsis thaliana, UniProt Q9SJQ9); experiment: Microscale thermophoresis (MST) binding to FBA6 expressed and purified from E. coli
T5 construct: made in house; host or cells: E. coli
T5 sequence (Q9SJQ9 1-358): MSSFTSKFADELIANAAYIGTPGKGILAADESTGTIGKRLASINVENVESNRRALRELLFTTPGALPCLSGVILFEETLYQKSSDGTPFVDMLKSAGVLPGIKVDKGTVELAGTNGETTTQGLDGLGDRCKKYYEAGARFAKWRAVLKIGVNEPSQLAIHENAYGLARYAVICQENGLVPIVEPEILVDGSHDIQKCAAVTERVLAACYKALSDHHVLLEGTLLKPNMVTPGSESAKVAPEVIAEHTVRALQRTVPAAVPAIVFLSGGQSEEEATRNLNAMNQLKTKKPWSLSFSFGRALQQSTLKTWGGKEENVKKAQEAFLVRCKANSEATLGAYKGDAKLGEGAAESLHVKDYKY
Text: FBA6 protein was expressed and purified from E. coli. MST uses the intristic tendency of all the biological molecules to move in the temperature gradient. This movement is dependent on the molecule size, charge and hydration shell. Complex formation affects at least one of the three parameters changing the movement and indicating binding event. […] The results obtained point to both strong and specific interaction.

[2] = target: T6, Methylthioribose-1-phosphate isomerase (MTR-1-P) (Arabidopsis thaliana, UniProt Q9ZUG4); experiment: Microscale thermophoresis (MST) assay, MTA-MTR-1-P interaction; type: binding; settings: mean±SD, n=3
T6 sequence (Q9ZUG4 1-374): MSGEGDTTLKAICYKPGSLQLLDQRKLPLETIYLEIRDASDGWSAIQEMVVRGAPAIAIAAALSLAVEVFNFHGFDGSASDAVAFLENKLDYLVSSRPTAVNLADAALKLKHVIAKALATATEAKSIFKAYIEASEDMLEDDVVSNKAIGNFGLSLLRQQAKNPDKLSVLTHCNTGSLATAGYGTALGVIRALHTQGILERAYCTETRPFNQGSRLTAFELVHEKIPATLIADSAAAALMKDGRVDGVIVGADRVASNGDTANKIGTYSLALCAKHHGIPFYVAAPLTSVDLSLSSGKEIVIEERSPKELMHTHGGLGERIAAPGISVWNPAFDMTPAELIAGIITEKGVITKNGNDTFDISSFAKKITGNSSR

[3] = target: T7, 3-methyl-2 oxobutanoate hydroxymethyl-transferase 1 (KPHMT1) (Arabidopsis thaliana, UniProt O82357); experiment: Microscale thermophoresis (MST) assay, Panthotenate-KPHMT1 interaction; type: binding; settings: mean±SD, n=3
T7 sequence (O82357 49-347): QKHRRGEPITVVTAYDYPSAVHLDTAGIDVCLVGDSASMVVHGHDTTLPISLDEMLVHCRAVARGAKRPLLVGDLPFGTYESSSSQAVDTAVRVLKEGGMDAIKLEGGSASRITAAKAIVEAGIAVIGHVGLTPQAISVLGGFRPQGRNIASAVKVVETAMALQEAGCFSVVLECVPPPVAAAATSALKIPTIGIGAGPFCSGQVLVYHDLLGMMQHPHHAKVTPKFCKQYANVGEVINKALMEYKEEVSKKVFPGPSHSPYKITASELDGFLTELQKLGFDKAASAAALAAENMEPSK
Procedure: B) Panthotenate-KPHMT1 interaction was tested by Microscale thermophoresis (MST) assay. […] Data are mean±SD, n=3.

Nc1ncnc2c1ncn2[C@@H]1O[C@@H]2COP(=O)(O)O[C@H]2[C@H]1O [3′,5′-cAMP, reference compound]
binding to TIA1 (in words) (TIA1): not | binding to Rbp47b (in words) (Rbp47b): did not observe any binding | effect on thermal stability of Rbp47b (in words) (Rbp47b-TAP protein): No such effect was observed

CC1C[C@]23C[C@H]1CCC2[C@]12CC[C@H](O)[C@](C)(C(=O)O1)[C@H]2[C@@H]3C(=O)O (stereo partly drawn) [16,17-dihydro-GA4]
Kd [1]: 1400 nM

NCC(=O)N1CCC[C@H]1C(=O)O [Gly-Pro, L-Gly-L-Pro] (H-Gly-Pro-OH)
Kd (FBA6): ~200 nM

CSC[C@H]1O[C@@H](n2cnc3c(N)ncnc32)[C@H](O)[C@@H]1O [MTA, Methylthioadenosine]
Kd [2]: 2700 nM

CC(C)(CO)[C@@H](O)C(=O)NCCC(=O)O [Panthotenate, Pantothenic acid]
Kd [3]: 367000 nM

O=C(O)CNC(=O)[C@@H]1CCCN1 [Pro-Gly] (H-Pro-Gly-OH)
binding to FBA6 (in words) (FBA6; MST): not

dihydroxyacetone phosphate [DHAP]
Kd (FBA6; MST, FBA6 purified from E. coli, read-out: Kd of binding to FBA6): ~200 nM
